We go through 23 compounds from patent US10206907B2, “Compounds useful for the treatment of degenerative and inflammatory diseases” (GALAPAGOS NV, priority 2008, dated 2019).

Usually IC50 stands for the point on the concentration scale where inhibition reaches its midpoint. Usually EC50 stands for the concentration at which the effect is half-maximal.

A value given as a limit tells only on which side of the number the result lay.

Experiment [1] has as its target Recombinant human JAK2 catalytic domain (Homo sapiens (Human), UniProt O60674). The experiment is described as follows: JAK2 inhibition assay. It is filed as biochemical. Conditions: semi-quantitative score. How it is done:
After 90 min at 30° C., reactions were stopped by adding of 25 μL/well of 150 mM phosphoric acid. […] Plates were washed 6 times with 300 μL per well of a 75 mM phosphoric acid solution and the bottom of the plates was sealed. 40 μL/well of Microscint-20 was added, the top of the plates was sealed and readout was performed using the Topcount (Perkin Elmer). Kinase activity was calculated by subtracting counts per minute (cpm) obtained in the presence of a positive control inhibitor (10 μM staurosporine) from cpm obtained in the presence of vehicle. The ability of a test compound to inhibit this activity was determined as: Percentage inhibition=((cpm determined for sample with test compound present−cpm determined for sample with positive control inhibitor) divided by (cpm determined in the presence of vehicle−cpm determined for sample with positive control inhibitor))*100%.
Dose dilution series were prepared for the compounds enabling the testing of dose-response effects in the JAK2 assay and the calculation of the IC50 for each compound.

In experiment [2] the target is Recombinant human JAK1 catalytic domain (Homo sapiens (Human), UniProt P23458). Put plainly: JAK1 inhibition assay. In kind it is biochemical. The conditions noted are these: semi-quantitative score. In outline:
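IC50 values come from dose-response series, with each point expressed as percent inhibition of cpm. Vehicle sets full activity and 10 μM staurosporine sets background. Incorporated radioactivity counted by scintillation after washing with 75 mM phosphoric acid.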

Experiment [3] relates to JAK-STAT signalling in HeLa cells. Put plainly: JAK-STAT signalling assay (OSM-triggered pSTAT1(2)-luciferase reporter in HeLa cells). In kind it is cell-based. Conditions: Homo sapiens; HeLa cells, OSM-triggered pSTAT1(2)-luciferase reporter; read-out: STAT signalling EC50. How it is done: HeLa cells were maintained in Dulbecco's Modified Eagle's Medium (DMEM) containing 10% heat inactivated fetal calf serum, 100 U/mL penicillin and 100 μg/mL streptomycin. HeLa cells were used at 70% confluence for transfection. 20,000 cells in 87 μL cell culture medium were transiently transfected with 40 ng pSTAT1(2)-luciferase reporter (Panomics), 8 ng of LacZ reporter as internal control reporter and 52 ng of pBSK using 0.32 μL Jet-PEI (Polyplus) as transfection reagent per well in 96-well plate format. After overnight incubation at 37° C., 10% CO2, transfection medium was removed.
40 μL of cell lysate was used to read β-galactosidase activity by adding 180 μL βGal solution (30 μl ONPG 4 mg/mL+150 μL β-Galactosidase buffer (0.06 M Na2HPO4, 0.04 M NaH2PO4, 1 mM MgCl2)) for 20 min.
Luciferase activity was measured using 40 μL cell lysate plus 40 μl of Steadylite® as described by the manufacturer (Perkin Elmer), on the Envision (Perkin Elmer).
The positive and negative controls were used to calculate z’ and ‘percent inhibition’ (PIN) values.
PIN values were plotted for compounds tested in dose-response and EC50 values were derived.
(In general: In a reporter assay the amount or activity of a reporter protein is the signal.)

Recombinant human JAK2 catalytic domain, sequence (O60674 808-1132): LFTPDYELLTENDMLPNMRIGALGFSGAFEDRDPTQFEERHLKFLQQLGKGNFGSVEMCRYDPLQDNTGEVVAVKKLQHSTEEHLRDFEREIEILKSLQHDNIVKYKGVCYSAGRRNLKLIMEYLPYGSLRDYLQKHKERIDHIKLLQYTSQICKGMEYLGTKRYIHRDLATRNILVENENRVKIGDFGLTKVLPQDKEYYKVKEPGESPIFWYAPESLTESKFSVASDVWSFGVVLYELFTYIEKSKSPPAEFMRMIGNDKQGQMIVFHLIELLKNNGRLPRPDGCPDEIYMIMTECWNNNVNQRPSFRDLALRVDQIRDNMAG
Recombinant human JAK1 catalytic domain, sequence (P23458 850-1154): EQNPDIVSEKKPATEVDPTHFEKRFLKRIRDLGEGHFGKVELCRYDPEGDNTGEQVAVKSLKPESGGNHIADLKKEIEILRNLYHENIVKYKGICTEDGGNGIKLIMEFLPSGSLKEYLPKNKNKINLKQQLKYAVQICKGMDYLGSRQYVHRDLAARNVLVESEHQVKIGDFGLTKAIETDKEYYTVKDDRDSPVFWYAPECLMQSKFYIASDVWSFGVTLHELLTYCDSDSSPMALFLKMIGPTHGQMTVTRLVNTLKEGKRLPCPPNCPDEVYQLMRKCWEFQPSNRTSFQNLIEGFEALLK

As for `O=C(Nc1nc2cccc(-c3cccc(OCc4ccccc4)c3)n2n1)C1CC1` [Compound 14, N-(5-(3-(benzyloxy)phenyl)-[1,2,4]triazolo[1,5-a]pyridin-2-yl)cyclopropanecarboxamide], the IC50 in experiment [1] was in the range of 501 to 1000 nM; in experiment [2], 101 to 500 nM. Further, the 50% effective concentration (EC50) in experiment [3] was more than 1000 nM.

As to `O=C(Nc1nc2cccc(-c3ccc(-c4cccs4)cc3)n2n1)C1CC1` [Compound 20, N-(5-(4-(thiophen-2-yl)phenyl)-[1,2,4]triazolo[1,5-a]pyridin-2-yl)cyclopropanecarboxamide], the results for the IC50 in experiment [1] and in experiment [2] were 501 to 1000 nM and 101 to 500 nM, respectively. In experiment [3], the EC50 lay in the range of 501 to 1000 nM.

For `N#CC1CCN(Cc2ccc(-c3cccc4nc(NC(=O)C5CC5)nn34)cc2)CC1` [Compound 232, Cyclopropanecarboxylic acid {5-[4-(4-cyano-piperidin-1-ylmethyl)-phenyl]-[1,2,4]triazolo[1,5-a]pyridin-2-yl}-amide], the IC50 in experiment [1] was 101 to 500 nM; in experiment [2], less than 100 nM. Besides, in experiment [3], the concentration giving a half-maximal response (EC50) was more than 1000 nM.

Consider `CN1CCN(c2ccc(NCc3ccc(-c4cccc5nc(NC(=O)C6CC6)nn45)cc3)cn2)CC1` [Compound 235, Cyclopropanecarboxylic acid [5-(4-{[6-(4-methyl-piperazin-1-yl)-pyridin-3-ylamino]-methyl}-phenyl)-[1,2,4]triazolo[1,5-a]pyridin-2-yl]-amide], for which the IC50 is 101 to 500 nM in experiment [1] and less than 100 nM in experiment [2]. Besides, in experiment [3], the EC50 was more than 1000 nM.

In the case of `N#Cc1ccc(-c2ccc(-c3cccc4nc(NC(=O)C5CC5)nn34)cc2)cn1` [Compound 239, Cyclopropanecarboxylic Acid {5-[4-(6-cyano-pyridin-3-yl)-phenyl]-[1,2,4]triazolo[1,5-a]pyridin-2-yl}-amide], the IC50 was 101 to 500 nM in experiment [1] and less than 100 nM in experiment [2]. For the same compound, the EC50 in experiment [3] was more than 1000 nM.

As to `Cc1ccc(C(N)=O)cc1NCc1ccc(-c2cccc3nc(NC(=O)C4CC4)nn23)cc1` [Compound 249], the IC50 in experiment [2] was less than 100 nM. Besides, in experiment [3], the concentration for a half-maximal effect (EC50) was more than 1000 nM.

Turning to `O=C(NCc1ccc(-c2cccc3nc(NC(=O)C4CC4)nn23)cc1)C1CCC1` [Compound 268, Cyclobutanecarboxylic acid 4-[2-(cyclopropanecarbonyl-amino)-[1,2,4]triazolo[1,5-a]pyridin-5-yl]-benzylamide], the IC50 in experiment [2] is less than 100 nM. Also, the EC50 in experiment [3] is more than 1000 nM.

As to `CN(C)C1CCCN(C(=O)c2ccc(-c3cccc4nc(NC(=O)C5CC5)nn34)cc2)C1` (centres unmarked) [Compound 269, Cyclopropanecarboxylic acid {5-[4-(3-dimethylamino-piperidine-1-carbonyl)-phenyl]-[1,2,4]triazolo[1,5-a]pyridin-2-yl}-amide], the IC50 in experiment [1] is more than 1000 nM; in experiment [2], 101 to 500 nM. Also, the EC50 in experiment [3] was more than 1000 nM.

Consider `O=C(NCc1ccc(-c2cccc3nc(NC(=O)C4CC4)nn23)cc1)C1CC1` [Compound 272, Cyclopropanecarboxylic acid 4-[2-(cyclopropanecarbonyl-amino)-[1,2,4]triazolo[1,5-a]pyridin-5-yl]-benzylamide], for which the IC50 in experiment [1] was 101 to 500 nM; in experiment [2], less than 100 nM. The EC50 in experiment [3] was more than 1000 nM.

For `O=C1CN(C(=O)c2ccc(-c3cccc4nc(NC(=O)C5CC5)nn34)cc2)CCN1` [Compound 277, Cyclopropanecarboxylic acid [5-[4-(3-oxo-piperazine-1-carbonyl)-phenyl]-[1,2,4]triazolo[1,5-a]pyridin-2-yl}-amide], the IC50 in experiment [1] is 101 to 500 nM; in experiment [2], less than 100 nM. The EC50 in experiment [3] was more than 1000 nM.

For the compound `N#Cc1ccc(OC2CN(Cc3ccc(-c4cccc5nc(NC(=O)C6CC6)nn45)cc3)C2)cc1` [Compound 278, Cyclopropanecarboxylic acid (5-{4-[3-(4-cyano-phenoxy)-azetidin-1-ylmethyl]-phenyl}-[1,2,4]triazolo[1,5-a]pyridin-2-yl)-amide], the IC50 in experiment [1] was 101 to 500 nM; in experiment [2] it was less than 100 nM. For the same compound, in experiment [3], the EC50 is more than 1000 nM.

With `COC1CCN(Cc2ccc(-c3cccc4nc(NC(=O)C5CC5)nn34)cc2)CC1` [Compound 281, Cyclopropanecarboxylic acid {5-[4-(4-methoxy-piperidin-1-ylmethyl)-phenyl]-[1,2,4]triazolo[1,5-a]pyridin-2-yl}-amide], the IC50 in experiment [1] was more than 1000 nM; in experiment [2], less than 100 nM. For the same compound, in experiment [3], the EC50 is more than 1000 nM.

In the case of `N#Cc1ccc(COC2CN(c3ccc(-c4cccc5nc(NC(=O)C6CC6)nn45)cc3)C2)cc1` [Compound 284, Cyclopropanecarboxylic acid (5-{4-[3-(4-cyano-benzyloxy)-azetidin-1-yl]-phenyl}-[1,2,4]triazolo[1,5-a]pyridin-2-yl)-amide], the IC50 in experiment [1] is 501 to 1000 nM; in experiment [2] it was less than 100 nM. The EC50 in experiment [3] is more than 1000 nM.

As to `N#CC1CN(c2ccc(-c3cccc4nc(NC(=O)C5CC5)nn34)cc2)C1` [Compound 288, Cyclopropanecarboxylic acid {5-[4-(3-cyano-azetidin-1-yl)-phenyl]-[1,2,4]triazolo[1,5-a]pyridin-2-yl}-amide], the figures for the IC50 in experiment [1] and in experiment [2] were 101 to 500 nM and less than 100 nM, respectively. In addition, the EC50 in experiment [3] is more than 1000 nM.

Consider `COC1CCN(C(=O)c2ccc(-c3cccc4nc(NC(=O)C5CC5)nn34)cc2)CC1` [Compound 293, Cyclopropanecarboxylic acid {5-[4-(4-methoxy-piperidine-1-carbonyl)-phenyl]-[1,2,4]triazolo[1,5-a]pyridin-2-yl}-amide], for which the IC50 in experiment [1] was more than 1000 nM; in experiment [2], less than 100 nM. In addition, the EC50 in experiment [3] was more than 1000 nM.

Regarding `N#CC1CN(Cc2ccc(-c3cccc4nc(NC(=O)C5CC5)nn34)cc2)C1` [Compound 303, Cyclopropanecarboxylic acid {5-[4-(3-cyano-azetidin-1-ylmethyl)-phenyl]-[1,2,4]triazolo[1,5-a]pyridin-2-yl}-amide], the values for the IC50 in experiment [1] and in experiment [2] were 101 to 500 nM and less than 100 nM, respectively. Moreover, in experiment [3], the EC50 lay in the range of 501 to 1000 nM.

As to `CC(C)(C)OC(=O)NC1CCN(Cc2ccc(-c3cccc4nc(NC(=O)C5CC5)nn34)cc2)CC1` [Compound 310], the half-inhibitory concentration (IC50) is more than 1000 nM in experiment [1] and less than 100 nM in experiment [2]. Moreover, in experiment [3], the EC50 was more than 1000 nM.

In the case of `O=C(Nc1nc2cccc(-c3ccc(CN4CCCC(O)C4)cc3)n2n1)C1CC1` (centres unmarked) [Compound 313, Cyclopropanecarboxylic acid {5-[4-(3-hydroxy-piperidin-1-ylmethyl)-phenyl]-[1,2,4]triazolo[1,5-a]pyridin-2-yl}-amide], the IC50 in experiment [1] was 101 to 500 nM; in experiment [2] it was less than 100 nM. The EC50 in experiment [3] was more than 1000 nM.

For the compound `O=C(Nc1nc2cccc(-c3ccc(CC(=O)N4CCC4)cc3)n2n1)C1CC1` [Compound 318, Cyclopropanecarboxylic acid {5-[4-(2-azetidin-1-yl-2-oxo-ethyl)-phenyl]-[1,2,4]triazolo[1,5-a]pyridin-2-yl}-amide], the IC50 in experiment [1] and in experiment [2] was 101 to 500 nM throughout.

`CC1CC(C)CN(C(=O)Cc2ccc(-c3cccc4nc(NC(=O)C5CC5)nn34)cc2)C1` (centres unmarked) [Compound 320, Cyclopropanecarboxylic acid (5-{4-[2-(3,5-dimethyl-piperidin-1-yl)-2-oxo-ethyl]-phenyl}-[1,2,4]triazolo[1,5-a]pyridin-2-yl)-amide]: the IC50 in experiment [1] and in experiment [2] was 101 to 500 nM each time.

As for `COC1CN(C(=O)Cc2ccc(-c3cccc4nc(NC(=O)C5CC5)nn34)cc2)C1` [Compound 321, Cyclopropanecarboxylic acid (5-{4-[2-(3-methoxy-azetidin-1-yl)-2-oxo-ethyl]-phenyl} - [1,2,4]triazolo[1,5-a]pyridin-2 yl)-amide], the IC50 in experiment [2] was less than 100 nM. In addition, the EC50 in experiment [3] is more than 1000 nM.

With `CC(=O)NC1CN(C(=O)Cc2ccc(-c3cccc4nc(NC(=O)C5CC5)nn34)cc2)C1` [Compound 322, Cyclopropanecarboxylic acid (5-{4-[2-(3-acetylamino-azetidin-1-yl)-2-oxo-ethyl]-phenyl}-[1,2,4]triazolo[1,5-a]pyridin-2-yl)-amide], the IC50 in experiment [1] and in experiment [2] was more than 1000 nM throughout.

As for `CN(C)C(=O)C1CN(C(=O)Cc2ccc(-c3cccc4nc(NC(=O)C5CC5)nn34)cc2)C1` [Compound 324, 1-(2-{4-[2-(Cyclopropanecarbonyl-amino)-[1,2,4]triazolo[1,5-a]pyridin-5-yl]-phenyl}-acetyl)-azetidine-3-carboxylic acid dimethylamide], the IC50 in experiment [1] and in experiment [2] was more than 1000 nM in each case.
